The values that follow come from patent US20250381249A1, “COMBINATION TREATMENT FOR RESISTANT HYPERTENSION” (Mayo Foundation for Medical Education and Research, priority 2018, published 2025).

SMILES strings stand for the structures.

Holding throughout (assay type): in vivo, rat
For data set [1], the system named is spontaneously hypertensive rats (SHR). Briefly: Individual and combined effects of MANP and Fs on BP and aldosterone in spontaneously hypertensive rats (Example 1). The settings on record: for Mean arterial pressure (MAP) Δ: 60 minute period, mean±SD.
Data set [2] relates to SHR. Briefly: Acute study in SHR, systemic hemodynamics (arterial BP). The note with it: all three doses of Fs (1, 5, 10 mg/kg IV bolus). On the procedure: (§1) Acute Study Protocol in SHR: The cardiorenal and neurohumoral actions of MANP, Fs, or their combination were investigated in the genetic model of hypertension in male SHR (n=6 in each group). Rats were anesthetized in an induction chamber with inhaled Isoflurane 2.5%. During this brief state of anesthesia, the rats were administered IP Inactin 100 mg/kg to maintain anesthesia. An oxygen mask was used until the end of the experiment. The carotid artery was cannulated for arterial pressure measurements and the right jugular vein was cannulated for infusions. Pressures were recorded and analyzed digitally (Sonometrics, London, Ontario, Canada). Via a small incision in the lower abdominal wall, the bladder was cannulated for urine sampling.
Immediately after preparation, a 30-minute equilibration period was started with intravenous inulin infusion. […] After baseline measurements, rats were randomly assigned to ten groups: • Group 1—treated with MANP100; • Group 2—treated with MANP300; • Group 3—treated with MANP600; • Group 4—treated with Fs1; • Group 5—treated with Fs5; • Group 6—treated with Fs10; • Group 7—treated with MANP300+Fs5; • Group 8—treated with MANP300+Fs10; • Group 9—treated with MANP600+Fs10; and • Group 10—treated with inulin, normal saline, or inulin and normal saline. […]
(§2) Statistical Analysis: Values are expressed as mean±standard error of mean (SEM). […]

Data set [3] concerns SHR. Kind of data set: Acute study in SHR, neurohumoral analysis (plasma and urinary cGMP, aldosterone). The settings on record: Fs5 and Fs10, 60 minutes. On the procedure: Rats were anesthetized in an induction chamber with inhaled Isoflurane 2.5%. During this brief state of anesthesia, the rats were administered IP Inactin 100 mg/kg to maintain anesthesia. An oxygen mask was used until the end of the experiment. The carotid artery was cannulated for arterial pressure measurements and the right jugular vein was cannulated for infusions. Pressures were recorded and analyzed digitally (Sonometrics, London, Ontario, Canada). Via a small incision in the lower abdominal wall, the bladder was cannulated for urine sampling. Immediately after preparation, a 30-minute equilibration period was started with intravenous inulin infusion. […] Plasma and urinary cGMP (Enzo Life Sciences) and aldosterone (DRG International, Springfield, NJ) were determined by ELISA. Inulin concentrations were measured using the anthrone method, as described elsewhere (Fuhr et al. (1955) Klin. Wochenschr 33:729-730). GFR was calculated by inulin clearance. Electrolytes were measured by flame photometry (IL943, Instrumentation Laboratory, UK). All measurements were performed according to manufacturer instructions.

Data set [4] concerns SHR. Briefly: Acute study in SHR, renal function (GFR, urinary sodium and water excretion). The settings on record: Fs groups, 60 minutes, inulin clearance. On the procedure: as §1, with “Via a small incision in the lower abdominal wall, the bladder was cannulated for urine sampling.” left out
Neurohormonal and Electrolyte Analysis: Plasma ANP was measured by radioimmunoassay (Phoenix Pharmaceuticals) as an assessment of MANP, as the ANP RIA fully detects MANP (Burnett et al. (1986) Science 231(4742):1145-1147). Plasma and urinary cGMP (Enzo Life Sciences) and aldosterone (DRG International, Springfield, NJ) were determined by ELISA. Inulin concentrations were measured using the anthrone method, as described elsewhere (Fuhr et al. (1955) Klin. Wochenschr 33:729-730). GFR was calculated by inulin clearance. Electrolytes were measured by flame photometry (IL943, Instrumentation Laboratory, UK). […]
as §2

Consider `NS(=O)(=O)c1cc(C(=O)O)c(NCc2ccco2)cc1Cl` [Fs, furosemide], for which the “Mean arterial pressure (MAP) Δ” value in data set [1] (Fs1: 1 mg/kg Fs single bolus) is listed as −40±9 mmHg; in data set [1] (Fs5: 5 mg/kg Fs single bolus), −55±8 mmHg; in data set [1] (Fs10: 10 mg/kg Fs single bolus), −63±11 mmHg. Besides, in data set [1] (Fs, MANP and Fs+MANP groups, p<0.05), the urinary flow entry is listed as “enhanced”. Besides, the “BP compared with controls” value in data set [2] is given as “significantly reduced”. The “levels of aldosterone compared to the control, MANP100 and MANP300 groups” value in data set [3] was “significantly higher”. The “GFR compared to the no treatment control groups” value in data set [4] is “significantly lower”.
